Results on 16 compounds are retold here after paper PMC9695821, “Synthesis and Evaluation of NF-κB Inhibitory Activity of Mollugin Derivatives” (Molecules, 2022).

Broadly, the IC50 is the midpoint of a concentration-inhibition curve. Read a high IC50 as lower potency. A word on the melting point: it is the temperature, or range, at which the solid turns liquid.

Data set [1] concerns NF-κB transcriptional activity. Description: NF-κB luciferase reporter assay in HeLa cells. In kind it is cell-based. As to conditions: Homo sapiens, NF-κB luciferase reporter, 24 h treatment, hypoxic conditions, mean, n = 3. The protocol: A NF-κB-Luc plasmid for NF-κB luciferase reporter assay was obtained from Strategene (La Jolla, CA, USA). Transfections were performed as previously described. NF-κB-dependent luciferase activity was measured using the Dual-luciferase reporter assay system. Briefly, HeLa cells (1 × 10^5 cells/well) were seeded in a 96-well plate for 24 h. The cells were then transfected with plasmids for each well and then incubated for a transfection period of 24 h. […] Luciferase activity was determined in MicroLumat plus luminometer (EG&G Berthold, Bad Wildbad, Germany) by injecting 100 µL of assay buffer containing luciferin and measuring light emission for 10 s. Co-transfection with pRL-CMV (Promega, Madison, WI, USA), which expresses Renilla luciferase, was performed to enable normalization of data for transfection efficiency.
(In general: A reporter such as luciferase makes a cellular process visible.)

The next data set deals with xylene-induced ear edema. Description: Xylene-induced ear edema test, initial screening (i.p.). The data set is classed as in vivo. As to conditions: mice; for inhibition in vivo at 100 mg/kg: Mus musculus, ip, 0.5 h, n = 6, read-out: Inhibition Rate; for Edema Mean ± SD: 100 mg/kg, n = 6. The protocol: In vivo inhibition test of xylene induced ear edema in mice was performed to evaluate its anti-inflammatory activity.
In the initial screening, mice (male) were randomly divided into experimental group, positive control drug ibuprofen and Mesalazine group, and blank group. All target compounds were dissolved in dimethyl sulfoxide, and corresponding drugs were intraperitoneally injected into experimental group, positive control group and blank group, respectively. Mice were treated with 100 mg/kg, 0.1 mL/20 g body weight, and control mice received only DMSO (0.1 mL/20 g body weight). After 30 min, 20 μL of xy-lene was evenly applied on both sides of the right ear of the mice. After 30 min of xy-lene was applied, the mice were sacrificed by cutting off their necks. Then the left and right ears of the mice were drilled with a hole punch with a diameter of 7 mm, respec-tively, to obtain two round ear pieces. The degree of swelling (right ear mass–left ear mass) was calculated for each sample, and the swelling inhibition rate of each drug was calculated using the following formula. The inhibition rate of swelling degree (%) = (mean ear swelling degree of mice in blank group […] mean ear swelling degree of mice in target compound group)/mean ear swelling degree of mice in blank group × 100%. The data were processed by GraphPadPrism 5 and expressed as mean data ± SEM. One-way ANOVA method was used for statistical analysis of relevant data. A value of p < 0.05 in the chart indicates significant and statistically significant data dif-ference.

The nature of data set [2]: MTT cytotoxicity / cell viability assay. In kind it is cell-based. As to conditions: human; MTT assay, HeLa cells, 24 h treatment, normoxic conditions; mean, n = 3. Here is the method:
(§1) HeLa cells were inoculated and cultured in 96-well plates. After the cells adhered to the wall, the prepared target compounds with different concentrations were added to all plates for 24 h and then cultured in 5 mg/mL MTT solution for 4 h. The culture solution in the holes was sucked out, and DMSO reagent was added. After the crystallization was fully dissolved, the absorbance at 570 nm was measured by Multiskan GO.
In general terms: Tetrazolium dyes change colour on reduction, which living cells bring about.

A further data set has as its system HeLa cells. Put plainly: MTT cytotoxicity / cell viability assay. In kind it is cell-based. As to conditions: MTT assay, 24 h treatment, normoxic conditions, mean, n = 3. The protocol: as §1

In turn, `COC(=O)c1c2c(c3ccccc3c1OCC(=O)Nc1ccc(OC)cc1)OC(C)(C)C=C2` [Compound 4d, Methyl 6-(2-((4-methoxyphenyl)amino)-2-oxoethoxy)-2,2-dimethyl-2H-benzo [h] chromene-5-carboxylate] gave a melting point of 126 to 128 °C. Besides, half-maximal inhibition in data set [1] (IC50) was put at 88.2 µM. For the same compound, in the data set with xylene-induced ear edema, the inhibition in vivo at 100 mg/kg was 61.9% and the “Edema Mean ± SD” value stood at 2.5167 ± 0.6890 mg. The IC50 at 24 h in data set [2] was greater than 100 µM. The “IC50 Cytotoxicity” value in the data set with HeLa cells is given as “no significant cell toxicity”.

In the case of `COC(=O)c1c2c(c3ccccc3c1OCC(=O)Nc1ccc(C)cc1)OC(C)(C)C=C2` [Compound 4e, Methyl 2,2-dimethyl-6-(2-oxo-2-(p-tolylamino)ethoxy)-2H-benzo [h] chromene-5-carboxylate], the melting point was in the range of 120 to 122 °C. In data set [1], this compound came in with an IC50 of 55.1 µM. In the data set on xylene-induced ear edema, the inhibition in vivo at 100 mg/kg was found to be 41.4% and the “Edema Mean ± SD” value turned out to be 3.8667 ± 1.2023 mg. Also, in data set [2], the half-inhibitory concentration (IC50) at 24 h is greater than 100 µM. Besides, the “IC50 Cytotoxicity” value in the data set on HeLa cells is “no significant cell toxicity”.

In the case of `COC(=O)c1c2c(c3ccccc3c1OCC(=O)Nc1ccc(CC#N)cc1)OC(C)(C)C=C2` [Compound 4i, Methyl 6-(2-((4-(cyanomethyl)phenyl)amino)-2-oxoethoxy)-2,2-dimethyl-2H-benzo [h] chromene-5-carboxylate], the melting point lay within 115 to 117 °C. In data set [1], this compound yielded an IC50 of 22.9 µM. Moreover, in the data set with xylene-induced ear edema, the inhibition in vivo at 100 mg/kg was 59.1% and the “Edema Mean ± SD” value was 2.7000 ± 0.4619 mg. In addition, the IC50 at 24 h in data set [2] is greater than 100 µM. The “IC50 Cytotoxicity” value with HeLa cells is “no significant cell toxicity”.

`COC(=O)c1c2c(c3ccccc3c1OCC(=O)NC1CCN(Cc3ccccc3)CC1)OC(C)(C)C=C2` [Compound 6a, Methyl 6-(2-((1-benzylpiperidin-4-yl)amino)-2-oxoethoxy)-2,2-dimethyl-2H-benzo [h] chromene-5-carboxylate]: the melting point is 115 to 117 °C. Moreover, in data set [1], the IC50 worked out at 49.3 µM. Further, in the data set on xylene-induced ear edema, the inhibition in vivo at 100 mg/kg was 56.6% and the “Edema Mean ± SD” value is given as 2.8667 ± 1.2645 mg. Moreover, the IC50 at 24 h in data set [2] is greater than 100 µM.

Take `COC(=O)c1c2c(c3ccccc3c1OCC(=O)Nc1ccncc1C)OC(C)(C)C=C2` [Compound 6b, Methyl 2,2-dimethyl-6-(2-((3-methylpyridin-4-yl)amino)-2-oxoethoxy)-2H-benzo [h] chromene-5-carboxylate]: the melting point is 123 to 125 °C. For the same compound, inhibition in data set [1] was half-maximal at 41.9 µM (IC50). Further, in the data set with xylene-induced ear edema, the inhibition in vivo at 100 mg/kg was 63.1% and the “Edema Mean ± SD” value is reported as 2.4333 ± 0.1795 mg. This compound yielded an IC50 at 24 h in data set [2] greater than 100 µM.

In the case of `COC(=O)c1c2c(c3ccccc3c1OCC(=O)NCc1ccc(Cl)cc1)OC(C)(C)C=C2` [Compound 6c, Methyl 6-(2-((4-chlorobenzyl)amino)-2-oxoethoxy)-2,2-dimethyl-2H-benzo [h] chromene-5-carboxylate], the melting point fell in the range of 130 to 132 °C. In data set [1], this compound displayed an IC50 of 23.1 µM. Besides, in the data set on xylene-induced ear edema, the inhibition in vivo at 100 mg/kg was 73.2% and the “Edema Mean ± SD” value is on record as 1.7667 ± 0.3037 mg. Besides, in data set [2], the concentration for half-maximal inhibition (IC50) at 24 h is greater than 100 µM.

As for `COC(=O)c1c2c(c3ccccc3c1OCC(=O)Nc1ccncc1)OC(C)(C)C=C2` [Compound 6e, Methyl 2,2-dimethyl-6-(2-oxo-2-(pyridin-4-ylamino)ethoxy)-2H-benzo [h] chromene-5-carboxylate], the melting point lay within 126 to 128 °C. Further, the IC50 in data set [1] was greater than 100 µM. Moreover, in the data set with xylene-induced ear edema, the inhibition in vivo at 100 mg/kg came out at 65.9% and the “Edema Mean ± SD” value came out at 2.2500 ± 0.3403 mg. Moreover, in data set [2], the concentration for half-maximal inhibition (IC50) at 24 h is greater than 100 µM.

`COC(=O)c1c2c(c3ccccc3c1OCC(=O)NC1CC1)OC(C)(C)C=C2` [Compound 6f, Methyl 6-(2-(cyclopropylamino)-2-oxoethoxy)-2,2-dimethyl-2H-benzo [h] chromene-5-carboxylate]: the melting point was in the range of 134 to 136 °C. Moreover, the IC50 in data set [1] is greater than 100 µM. In the data set with xylene-induced ear edema, the inhibition in vivo at 100 mg/kg is 57.3% and the “Edema Mean ± SD” value was 2.8167 ± 0.6962 mg. In data set [2], the IC50 at 24 h was greater than 100 µM.

The compound `COC(=O)c1c2c(c3ccccc3c1OCC(=O)NC(c1ccccc1)c1ccccc1)OC(C)(C)C=C2` [Compound 6g, Methyl 6-(2-(benzhydrylamino)-2-oxoethoxy)-2,2-Dimethyl-2H-benzo [h] chromene-5-carboxylate] registered a melting point of 127 to 129 °C. The compound further showed an IC50 in data set [1] greater than 100 µM. Moreover, in the data set on xylene-induced ear edema, the inhibition in vivo at 100 mg/kg worked out at 58.6% and the “Edema Mean ± SD” value is 2.7333 ± 0.4819 mg. Moreover, the IC50 at 24 h in data set [2] is greater than 100 µM.

For `COC(=O)c1c2c(c3ccccc3c1OCC(=O)Nc1cnccn1)OC(C)(C)C=C2` [Compound 6h, Methyl 2,2-dimethyl-6-(2-oxo-2-(pyrazin-2-ylamino)ethoxy)-2H-benzo [h] chromene-5-carboxylate], the melting point was in the range of 121 to 123 °C. The same compound returned an IC50 in data set [1] of 4.93 µM. For the same compound, in the data set with xylene-induced ear edema, the inhibition in vivo at 100 mg/kg is 72.7% and the “Edema Mean ± SD” value is recorded as 1.8000 ± 0.6880 mg. Besides, the IC50 at 24 h in data set [2] was greater than 100 µM.

As for `COC(=O)c1c2c(c3ccccc3c1OCC(=O)Nc1ccc(C)nc1)OC(C)(C)C=C2` [Compound 6i, Methyl 2,2-dimethyl-6-(2-((6-methylpyridin-3-yl)amino)-2-oxoethoxy)-2H-benzo [h] chromene-5-carboxylate], the melting point is 119 to 121 °C. For the same compound, in data set [1], the IC50 was greater than 100 µM. In the data set on xylene-induced ear edema, the inhibition in vivo at 100 mg/kg stood at 42.9% and the “Edema Mean ± SD” value came out at 3.7667 ± 1.1571 mg. The same compound had a 50% inhibitory concentration (IC50) at 24 h in data set [2] greater than 100 µM.

Compound `COC(=O)c1c2c(c3ccccc3c1OCC(=O)Nc1cccc3cccnc13)OC(C)(C)C=C2` [Compound 6j, Methyl 2,2-dimethyl-6-(2-oxo-2-(quinolin-8-ylamino)ethoxy)-2H-benzo [h] chromene-5-carboxylate] returned a melting point of 113 to 115 °C. In data set [1], this compound returned an IC50 of 18.6 µM. In addition, in the data set with xylene-induced ear edema, the inhibition in vivo at 100 mg/kg is 75.2% and the “Edema Mean ± SD” value was found to be 1.6333 ± 0.4384 mg. In data set [2], this compound displayed an IC50 at 24 h greater than 100 µM.

With `COC(=O)c1c2c(c3ccccc3c1OCC(=O)Nc1ccc3ccccc3n1)OC(C)(C)C=C2` [Compound 6k, Methyl 2,2-dimethyl-6-(2-oxo-2-(quinolin-2-ylamino)ethoxy)-2H-benzo [h] chromene-5-carboxylate], the melting point lay in the range of 116 to 118 °C. In data set [1], this compound gave an IC50 greater than 100 µM. In addition, in the data set on xylene-induced ear edema, the inhibition in vivo at 100 mg/kg amounted to 66.9% and the “Edema Mean ± SD” value was 2.1833 ± 0.6414 mg. The compound also registered an IC50 at 24 h in data set [2] greater than 100 µM.

`COC(=O)c1c2c(c3ccccc3c1OCCBr)OC(C)(C)C=C2` [Compound 8a, Methyl 6-(2-bromoethoxy)-2,2-dimethyl-2H-benzo [h] chromene-5-carboxylate]: the melting point was 110 to 112 °C. Also, in data set [1], the half-inhibitory concentration (IC50) was greater than 100 µM. Besides, in the data set with xylene-induced ear edema, the inhibition in vivo at 100 mg/kg amounted to 57.3% and the “Edema Mean ± SD” value turned out to be 2.8167 ± 0.9370 mg. Moreover, the 50% inhibitory concentration (IC50) at 24 h in data set [2] was greater than 100 µM.

For the compound `COC(=O)c1c2c(c3ccccc3c1OCCNc1ccccc1)OC(C)(C)C=C2` [Compound 8b, Methyl 2,2-dimethyl-6-(2-(phenylamino)ethoxy)-2H-benzo[h]chromene-5-carboxylate], the melting point is 135 to 137 °C. Also, the half-maximal inhibitory concentration (IC50) in data set [1] is greater than 100 µM. In the data set on xylene-induced ear edema, the inhibition in vivo at 100 mg/kg was 76.5% and the “Edema Mean ± SD” value was 1.5500 ± 0.3594 mg. In addition, the IC50 at 24 h in data set [2] was greater than 100 µM.

Take `COC(=O)c1c2c(c3ccccc3c1OCCNc1ccc(F)cc1)OC(C)(C)C=C2` [Compound 8c, Methyl6-(2-((4-fluorophenyl)amino)ethoxy)-2,2-dimethyl-2H-benzo [h] chromene-5-carboxylate]: the melting point lay in the range of 128 to 130 °C. The IC50 in data set [1] is greater than 100 µM. For the same compound, in the data set on xylene-induced ear edema, the inhibition in vivo at 100 mg/kg was 63.9% and the “Edema Mean ± SD” value was 2.3833 ± 0.7104 mg. In data set [2], this compound returned an IC50 at 24 h greater than 100 µM.
